Data from patent US6828343B2, “Bicyclic pyrrolyl amides as glycogen phosphorylase inhibitors” (Pfizer, Inc., priority 1999, dated 2004).

Structure (SMILES): O=C(N[C@@H](Cc1ccccc1)C(=O)N1CCOCC1)c1cc2cc(Cl)sc2[nH]1 [Example 19, 2-chloro-6H-thieno[2,3-b]pyrrole-5-carboxylic acid [(1S)-benzyl-2-morpholin-4-yl-2-oxo-ethyl]-amide]
- melting point: 108 to 110 °C
